Experimental data as given in ChEMBL document CHEMBL4270599, “Synthesis of a 3'-C-ethynyl-β-d-ribofuranose purine nucleoside library: Discovery of C7-deazapurine analogs as potent antiproliferative nucleosides” (Eur J Med Chem, 2018).
pIC50: −log10 of the molar value.

Experiments:
[1] = test system: SK-MEL-5; assay: Growth inhibition of human SK-MEL-5 cells assessed as cell growth at 10^-7 M incubated for 48 hrs by sulforhodamine B assay relative to control; format: functional; details: SK-MEL-5, 48 h, read-out: Activity
[2] = test system: TK-10; assay: Growth inhibition of human TK10 cells assessed as cell growth at 10^-4 M incubated for 48 hrs by sulforhodamine B assay relative to control; format: functional; details: TK-10, 48 h, read-out: Activity
[3] = test system: SK-MEL-2; assay: Growth inhibition of human SK-MEL-2 cells assessed as cell growth at 10^-8 M incubated for 48 hrs by sulforhodamine B assay relative to control; format: functional; details: SK-MEL-2, 48 h, read-out: Activity
[4] = test system: RXF 393; assay: Growth inhibition of human RXF393 cells assessed as cell growth at 10^-8 M incubated for 48 hrs by sulforhodamine B assay relative to control; format: functional; details: RXF 393, 48 h, read-out: Activity
[5] = test system: SNB-19; assay: Growth inhibition of human SNB19 cells assessed as cell growth at 10^-8 M incubated for 48 hrs by sulforhodamine B assay relative to control; format: functional; details: SNB-19, 48 h, read-out: Activity
[6] = test system: MDA-MB-231; assay: Cytotoxicity against human MDA-MB-231 cells after 48 hrs by SRB assay; format: functional; details: MDA-MB-231, 48 h
[7] = test system: SF-295; assay: Growth inhibition of human SF295 cells assessed as cell growth at 10^-8 M incubated for 48 hrs by sulforhodamine B assay relative to control; format: functional; details: SF-295, 48 h, read-out: Activity
[8] = test system: OVCAR-3; assay: Growth inhibition of human OVCAR3 cells assessed as cell growth at 10^-8 M incubated for 48 hrs by sulforhodamine B assay relative to control; format: functional; details: OVCAR-3, 48 h, read-out: Activity
[9] = test system: SF-539; assay: Growth inhibition of human SF539 cells assessed as cell growth at 10^-7 M incubated for 48 hrs by sulforhodamine B assay relative to control; format: functional; details: SF-539, 48 h, read-out: Activity
[10] = test system: NCI/ADR-RES; assay: Growth inhibition of human NCI/ADR-RES cells assessed as cell growth at 10^-6 M incubated for 48 hrs by sulforhodamine B assay relative to control; format: functional; details: read-out: Activity
[11] = test system: MDA-MB-435; assay: Growth inhibition of human MDA-MB-435 cells assessed as cell growth at 10^-6 M incubated for 48 hrs by sulforhodamine B assay relative to control; format: functional; details: MDA-MB-435, 48 h, read-out: Activity
[12] = test system: HOP-92; assay: Growth inhibition of human HOP92 cells assessed as cell growth at 10^-8 M incubated for 48 hrs by sulforhodamine B assay relative to control; format: functional; details: HOP-92, 48 h, read-out: Activity
[13] = test system: HOP-92; assay: Cytotoxicity against human HOP92 cells after 48 hrs by SRB assay; format: functional; details: HOP-92, 48 h
[14] = test system: SK-MEL-5; assay: Growth inhibition of human SK-MEL-5 cells assessed as cell growth at 10^-8 M incubated for 48 hrs by sulforhodamine B assay relative to control; format: functional; details: SK-MEL-5, 48 h, read-out: Activity
[15] = test system: SN12C; assay: Growth inhibition of human SN12C cells assessed as cell growth at 10^-6 M incubated for 48 hrs by sulforhodamine B assay relative to control; format: functional; details: read-out: Activity
[16] = test system: KM12; assay: Growth inhibition of human KM12 cells assessed as cell growth at 10^-8 M incubated for 48 hrs by sulforhodamine B assay relative to control; format: functional; details: KM12, 48 h, read-out: Activity
[17] = test system: DU-145; assay: Cytotoxicity against human DU145 cells after 48 hrs by SRB assay; format: functional; details: DU-145, 48 h
[18] = test system: HCT-116; assay: Growth inhibition of human HCT116 cells assessed as cell growth at 10^-6 M incubated for 48 hrs by sulforhodamine B assay relative to control; format: functional; details: HCT-116, 48 h, read-out: Activity
[19] = test system: NCI/ADR-RES; assay: Growth inhibition of human NCI/ADR-RES cells assessed as cell growth at 10^-4 M incubated for 48 hrs by sulforhodamine B assay relative to control; format: functional; details: read-out: Activity
[20] = test system: OVCAR-5; assay: Growth inhibition of human OVCAR5 cells assessed as cell growth at 10^-6 M incubated for 48 hrs by sulforhodamine B assay relative to control; format: functional; details: OVCAR-5, 48 h, read-out: Activity
[21] = test system: T47D; assay: Growth inhibition of human T47D cells assessed as cell growth at 10^-8 M incubated for 48 hrs by sulforhodamine B assay relative to control; format: functional; details: read-out: Activity
[22] = test system: SN12C; assay: Growth inhibition of human SN12C cells assessed as cell growth at 10^-4 M incubated for 48 hrs by sulforhodamine B assay relative to control; format: functional; details: read-out: Activity
[23] = test system: NCI-H460; assay: Growth inhibition of human NCI-H460 cells assessed as cell growth at 10^-8 M incubated for 48 hrs by sulforhodamine B assay relative to control; format: functional; details: NCI-H460, 48 h, read-out: Activity
[24] = test system: HCT-116; assay: Growth inhibition of human HCT116 cells assessed as cell growth at 10^-7 M incubated for 48 hrs by sulforhodamine B assay relative to control; format: functional; details: HCT-116, 48 h, read-out: Activity
[25] = test system: NCI-H23; assay: Growth inhibition of human NCI-H23 cells assessed as cell growth at 10^-6 M incubated for 48 hrs by sulforhodamine B assay relative to control; format: functional; details: NCI-H23, 48 h, read-out: Activity
[26] = test system: U-251; assay: Growth inhibition of human U251 cells assessed as cell growth at 10^-5 M incubated for 48 hrs by sulforhodamine B assay relative to control; format: functional; details: U-251, 48 h, read-out: Activity
[27] = test system: MOLT-4; assay: Growth inhibition of human MOLT4 cells assessed as cell growth at 10^-7 M incubated for 48 hrs by sulforhodamine B assay relative to control; format: functional; details: MOLT-4, 48 h, read-out: Activity
[28] = test system: HT-29; assay: Growth inhibition of human HT-29 cells assessed as cell growth at 10^-7 M incubated for 48 hrs by sulforhodamine B assay relative to control; format: functional; details: HT-29, 48 h, read-out: Activity
[29] = test system: LOX IMVI; assay: Growth inhibition of human LOXIMVI cells assessed as cell growth at 10^-8 M incubated for 48 hrs by sulforhodamine B assay relative to control; format: functional; details: read-out: Activity
[30] = test system: MCF7; assay: Growth inhibition of human MCF7 cells assessed as cell growth at 10^-4 M incubated for 48 hrs by sulforhodamine B assay relative to control; format: functional; details: MCF7, 48 h, read-out: Activity
[31] = test system: UO-31; assay: Growth inhibition of human UO31 cells assessed as cell growth at 10^-8 M incubated for 48 hrs by sulforhodamine B assay relative to control; format: functional; details: UO-31, 48 h, read-out: Activity
[32] = test system: RXF 393; assay: Cytotoxicity against human RXF393 cells after 48 hrs by SRB assay; format: functional; details: RXF 393, 48 h
[33] = Antiproliferative activity against HELF cells after 4 days by Coulter counter method; format: cell-based; details: Homo sapiens, 96 h
[34] = read-out: pLC50 (the source's name) (converted)
[35] = read-out: LC50 (the source's name)

For `C#C[C@@]1(O)[C@@H](CO)O[C@@H](n2ccc3c(N)ncnc32)[C@@H]1O`, the growth at 0.1 µM [1] was 101%, the growth at 100 µM [2] was -5% and the growth at 0.01 µM [3] was 88%. For the same compound, the growth at 0.01 µM [4] was 99%, the growth at 0.01 µM [5] was 99% and the TGI ([6]; read-out: TGI) was 5.89 µM. The GI50 ([6]; read-out: pGI50 (converted)) was 1.51 µM, the CC50 [6, 34] was 83.2 µM and the TGI ([6]; read-out: pTGI (converted)) was 5.89 µM. For the same compound, the growth at 0.01 µM [7] was 89%, the growth at 0.01 µM [8] was 105% and the growth at 0.1 µM [9] was 103%. For the same compound, the growth at 1 µM [10] was 45%, the growth at 1 µM [11] was 73% and the growth at 0.01 µM [12] was 92%. The TGI ([13]; read-out: TGI) was 5.56 µM, the GI50 ([13]; read-out: pGI50 (converted)) was 2.04 µM and the CC50 [13, 34] was 22.9 µM. The TGI ([13]; read-out: pTGI (converted)) was 5.62 µM, the growth at 0.01 µM [14] was 102% and the growth at 1 µM [15] was 45%. The growth at 0.01 µM [16] was 98%, the CC50 [17, 35] was > 100 µM and the TGI ([17]; read-out: TGI) was 6.55 µM. It also gave a GI50 ([17]; read-out: pGI50 (converted)) of 0.562 µM, a TGI ([17]; read-out: pTGI (converted)) of 6.61 µM and a growth at 1 µM [18] of 38%. It also gave a growth at 100 µM [19] of -9%, a growth at 1 µM [20] of 106% and a growth at 0.01 µM [21] of 92%. It also gave a growth at 100 µM [22] of -64%, a growth at 0.01 µM [23] of 89% and a growth at 0.1 µM [24] of 92%. The growth at 1 µM [25] was 57%, the growth at 10 µM [26] was 2% and the growth at 0.1 µM [27] was 95%. It also gave a growth at 0.1 µM [28] of 95%, a growth at 0.01 µM [29] of 98% and a growth at 100 µM [30] of -53%. The growth at 0.01 µM [31] was 94%, the TGI ([32]; read-out: TGI) was 4.6 µM and the GI50 ([32]; read-out: pGI50 (converted)) was 1.91 µM. The CC50 [32, 34] was 12.9 µM and the TGI ([32]; read-out: pTGI (converted)) was 4.57 µM.

In the case of `C#C[C@@]1(O)[C@@H](CO)O[C@@H](n2cc(Br)c3c(N)ncnc32)[C@@H]1O`, the growth at 0.1 µM [1] was 30 to 71%, the growth at 100 µM [2] was 7% and the growth at 0.01 µM [3] was 96 to 106%. For the same compound, the growth at 0.01 µM [4] was 99%, the growth at 0.01 µM [5] was 64 to 98% and the GI50 ([6]; read-out: GI50) was 0.056 to 0.215 µM. For the same compound, the CC50 [6, 35] was > 100 µM, the TGI ([6]; read-out: TGI) was > 100 µM and the TGI ([6]; read-out: pTGI (converted)) was > 100 µM. For the same compound, the growth at 0.01 µM [7] was 90 to 96%, the growth at 0.01 µM [8] was 99 to 101% and the growth at 0.1 µM [9] was 79 to 91%. For the same compound, the growth at 1 µM [10] was 6%, the growth at 1 µM [11] was 15 to 28% and the growth at 0.01 µM [12] was 90 to 94%. The GI50 ([13]; read-out: GI50) was 0.149 to 0.318 µM, the CC50 [13, 35] was > 100 µM and the TGI ([13]; read-out: TGI) was 0.686 to 3.13 µM. For the same compound, the growth at 0.01 µM [14] was 93 to 96%, the growth at 1 µM [15] was 7 to 13% and the growth at 0.01 µM [16] was 91 to 95%. For the same compound, the GI50 ([17]; read-out: GI50) was 0.0628 to 0.151 µM, the TGI ([17]; read-out: TGI) was > 100 µM and the CC50 [17, 34] was > 100 µM. For the same compound, the TGI ([17]; read-out: pTGI (converted)) was > 100 µM, the growth at 1 µM [18] was 2 to 3% and the pIC50 [33] was 7.77. For the same compound, the growth at 1 µM [20] was 33 to 56%, the growth at 0.01 µM [21] was 64 to 81% and the growth at 100 µM [22] was 1 to 5%. It also gave a growth at 0.01 µM [23] of 63 to 104%, a growth at 0.1 µM [24] of 2 to 12% and a growth at 1 µM [25] of 7 to 13%. For the same compound, the growth at 0.1 µM [27] was 44 to 66%, the growth at 0.1 µM [28] was 10 to 35% and the growth at 0.01 µM [29] was 76 to 94%. The growth at 0.01 µM [31] was 70 to 84%, the GI50 ([32]; read-out: GI50) was 0.205 to 0.479 µM and the CC50 [32, 35] was > 100 µM. The TGI ([32]; read-out: TGI) was 0.653 to 2.29 µM.
